Experimental data taken from paper PMC6163054 (Chembiochem : a European journal of chemical biology, 2018).

Biological target: Fluc (firefly luciferase) (Photinus pyralis, UniProt P08659)
Experiment: bioluminescence kinetics, luminometer, nonlinear regression
Format: biochemical
Settings: ATP, Mg2+, pH 7.6; text says low millimolar range

Fluc (firefly luciferase), sequence (P08659 whole entry): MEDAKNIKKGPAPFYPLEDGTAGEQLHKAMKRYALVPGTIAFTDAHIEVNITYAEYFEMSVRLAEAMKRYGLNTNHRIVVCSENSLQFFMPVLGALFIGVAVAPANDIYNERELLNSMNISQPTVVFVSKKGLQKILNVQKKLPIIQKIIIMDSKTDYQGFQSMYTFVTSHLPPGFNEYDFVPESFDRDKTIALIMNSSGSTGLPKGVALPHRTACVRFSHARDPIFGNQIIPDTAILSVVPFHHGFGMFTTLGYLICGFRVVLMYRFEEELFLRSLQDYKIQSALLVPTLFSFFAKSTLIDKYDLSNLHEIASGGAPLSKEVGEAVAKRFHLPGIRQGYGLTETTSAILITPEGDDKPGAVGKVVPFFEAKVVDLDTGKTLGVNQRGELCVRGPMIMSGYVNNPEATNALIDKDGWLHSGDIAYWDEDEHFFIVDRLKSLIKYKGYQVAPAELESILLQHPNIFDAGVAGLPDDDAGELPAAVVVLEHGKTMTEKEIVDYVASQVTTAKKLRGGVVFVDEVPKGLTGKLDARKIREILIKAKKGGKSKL

Structure (SMILES)	apparent Km
O=C(O)[C@H]1CSC(c2nc3c[nH]c(=O)cc3s2)=N1 [compound 3, (S)-2-(Thiazolo[4,5-c]pyridin-6(5H)-one-2-yl)-4,5-dihydrothiazole-4-carboxylic acid]	The apparent Km values measured for both luciferins were in the low millimolar range
O=C(O)[C@H]1CSC(c2nc3ccc(=O)[nH]c3s2)=N1 [compound 4, (S)-2-(Thiazolo[5,4-b]pyridin-5(4H)-one-2-yl)-4,5-dihydrothiazole-4-carboxylic acid]	The apparent Km values measured for both luciferins were in the low millimolar range
